Test results reported in patent US20250186408A1, “TREATMENT OF PHARMACORESISTANT EPILEPSY” (Katholieke Universiteit Leuven, priority 2021, published 2025).
Entries after “also recorded” stand apart in the source; their conditions may differ.

How the values were obtained:
[1] = tested on: EKP-induced seizure behaviour in zebrafish larvae; experiment: Zebrafish ethyl ketopentanoate (EKP) seizure model, behavioural analysis; assay type: in vivo, zebrafish (Danio rerio); settings: for active in the behavioural assay / tolerated in the behavioural assay: 5 dpf larvae, 2 h; for activity against EKP-induced drug-resistant seizures (behavioural) / reduction in EKP-induced drug-resistant seizures (non-significant): maximum tolerated concentration, 7-day-old larvae (FIG. 3); for activity against EKP-induced drug-resistant seizures (behavioural) / reduction in EKP-induced drug-resistant seizures (non-significant) / reduction in EKP-induced seizure behaviour (non-significant): 2 h incubation; for reduction in EKP-induced seizure behaviour (non-significant): 5-day-old larvae; for antiseizure activity at the behavioural level (in words): FIG. 5 and FIG. 3
Experimental: Experiments were performed as described in (16). In brief, a single 5 or 7 dpf larva was placed in each well of a 96-well plate and treated with either VHC (embryo medium with 1% DMSO) or test compound (dissolved in embryo medium, final solvent concentration of 1% DMSO) in a 100 μL volume. Larvae were incubated in the dark for 2 h at 28° C., whereafter 100 μL of either VHC (embryo medium with 1% DMSO) or 600 μM EKP (dissolved in embryo medium, final solvent concentration of 1% DMSO, 300 μM working concentration) was added to each well. Next, within 5 min the 96-well plate was placed in an automated tracking device (ZebraBox Viewpoint, France) and larval behaviour was video recorded for 30 min. The complete procedure was performed in dark conditions using infrared light. Total locomotor activity was recorded by ZebraLab software (Viewpoint, France) and expressed in actinteg units, which is the sum of pixel changes detected during the defined time interval (5 min). Larval behaviour was depicted as mean actinteg units per 5 min during the 30 min recording period and over consecutive time intervals. Data are pooled from independent experiments and expressed as mean±SD.
In our search for novel antiseizure compounds with the potential to treat drug-resistant seizures, the zebrafish EKP seizure model was used for hit identification and as critical gate-keeper for further investigation in the pharmacoresistant mouse 6-Hz (44 mA) psychomotor seizure model. An automated behavioural analysis was done of 7-day-old zebrafish larvae using video tracking (ViewPoint, France).
The compounds were tested in 5-day-old zebrafish larvae at 2 and/or 10 μM, depending on their tolerability, after 2 h incubation time. […] Among the antiseizure hits were compounds from 10 out of 11 classes tested, namely, propynones, propynals, propynols, propenones, amides, quinolinones, naphthyridinones, thiopyranoxides, pyrazolopyridines and indazoles.

[2] = tested on: EKP-induced epileptiform discharges in zebrafish larvae; experiment: Zebrafish EKP seizure model, electrophysiology (non-invasive LFP recordings, PSD analysis); assay type: in vivo, zebrafish (Danio rerio); settings: 7 dpf larvae; for efficacy against EKP-induced epileptiform discharges 2 μM / efficacy against EKP-induced epileptiform discharges 10 μM: 22 h incubation, mean, normalized PSD 20-90 Hz; for effect on EKP-induced elevated PSD (in words): 22 h
Experimental: Non-invasive LFP recordings were measured from the midbrain (optic tectum) of 7 dpf zebrafish larvae pre-incubated with VHC only, EKP only, or compound and EKP. […] These steps occurred at 28° C., while further manipulation and electrophysiological recordings occurred at room temperature (±21° C.) and were performed as described before (16, 27). Each recording lasted 600 seconds.
A power spectral density (PSD) analysis of the recordings was performed using MatLab R2019 software (MATrix LABoratory, USA) as described in (26). The PSD estimate of each LFP recording was summed over each 10 Hz frequency band, ranging from 0 to 160 Hz. Next, the PSD estimates were normalized against the VHC control. Data are expressed as mean±SEM PSD per larva and per condition over the 20-90 Hz region. Outliers were identified via the ROUT test (Q=1%).
PSD analysis assumes that the epileptiform activity manifests as a high-power oscillation at certain frequencies (26). Thus, if epileptic activity occurs often during the recording an elevated PSD estimate should be found at the corresponding frequency band(s) (26).

[3] = tested on: male NMRI mice; experiment: Mouse 6-Hz (44 mA) psychomotor seizure model; assay type: in vivo; settings: for mean seizure duration / dose-response relationship (in words): 30 min before stimulation; for dose-response relationship (in words): i.p.
Experimental: The antiseizure activity of compounds was investigated in the mouse 6-Hz (44 mA) psychomotor seizure model as described before (27). […] Seizure behaviour was video recorded and seizure durations were determined by blinded video analysis by experienced researchers, familiar with the different seizure characteristics. Data are expressed as mean±SD.
The 6-Hz 44 mA model is an acute model of pharmacoresistant focal impaired awareness seizures, previously referred to as complex partial or psychomotor seizures that are induced by a low frequency, long duration corneal electrical stimulation (6 Hz, 0.2 ms rectangular pulse width, 3 s duration, 44 mA). Seizures are typically characterized by a clonic phase and stereotypical automatic behaviours like stun, forelimb clonus, Straub tail and vibrissae twitching.

Nc1ncccc1C(=O)C#Cc1ccc(Cl)c(Cl)c1 [Compound 1.13, 1-(2-aminopyridin-3-yl)-3-(3,4-dichlorophenyl)prop-2-yn-1-one]
active in the behavioural assay [1]: active
tolerated in the behavioural assay [1]: tolerated

O=C(C#Cc1cccc(Cl)c1)c1cccnc1Cl [Compound 1.20, 3-(3-chlorophenyl)-1-(2-chloropyridin-3-yl)prop-2-yn-1-one]
active in the behavioural assay [1]: active
tolerated in the behavioural assay [1]: tolerated

O=C(C#Cc1cccc(Cl)c1)c1cccnc1N1CCOCC1 [Compound 1.21, 3-(3-chlorophenyl)-1-(2-morpholinopyridin-3-yl)prop-2-yn-1-one]
active in the behavioural assay [1]: active
tolerated in the behavioural assay [1]: tolerated

CC(C)(C)c1ccc(C#CC(=O)c2cccnc2N)cc1 [Compound 1.22, 1-(2-aminopyridin-3-yl)-3-(4-(tert-butyl)phenyl)prop-2-yn-1-one]
efficacy against EKP-induced epileptiform discharges 2 μM ([2]; 2 μM): 45%
activity against EKP-induced drug-resistant seizures (behavioural) [1]: active; also recorded: most effective

CCCCCCC#CC(=O)c1cccnc1N [Compound 1.23, 1-(2-aminopyridin-3-yl)non-2-yn-1-one]
efficacy against EKP-induced epileptiform discharges 2 μM ([2]; 2 μM): 31%
efficacy against EKP-induced epileptiform discharges 10 μM ([2]; 10 μM): −25%
reduction in EKP-induced drug-resistant seizures (non-significant) [1]: approximately 20%

O=C(C#Cc1ccc(Cl)cc1)c1ccccc1 [Compound 1.31, 3-(4-chlorophenyl)-1-phenylprop-2-yn-1-one]
active in the behavioural assay [1]: active
tolerated in the behavioural assay [1]: tolerated

O=C(C#Cc1cccc(F)c1)c1ccccc1 [Compound 1.35, 3-(3-fluorophenyl)-1-phenylprop-2-yn-1-one]
active in the behavioural assay [1]: active
tolerated in the behavioural assay [1]: tolerated

CC(C)(C)c1ccc(C#CCc2ccccc2)cc1 [Compound 4.1, 1-(tert-butyl)-4-(3-phenylprop-1-yn-1-yl)benzene]
efficacy against EKP-induced epileptiform discharges 2 μM ([2]; 2 μM): 38%
reduction in EKP-induced seizure behaviour (non-significant) ([1]; 2 μM): approximately 23%
reduction in EKP-induced seizure behaviour (non-significant) ([1]; 10 μM): ~19%
antiseizure activity at the behavioural level (in words) [1]: did not show significant activity

Nc1ncccc1C(=O)N1CCN(c2cccc(Cl)c2)CC1 [Compound 6.1, (2-aminopyridin-3-yl)(4-(3-chlorophenyl)piperazin-1-yl)methanone]
mean seizure duration ([3]; 30 mg/kg i.p.): 15.5 s
mean seizure duration ([3]; 100 mg/kg i.p.): 4.3 s
mean seizure duration ([3]; 300 mg/kg i.p.): 0.5 s
mean seizure duration ([3]; 600 mg/kg i.p.): 0.5 s
dose-response relationship (in words) [3]: displayed a dose-response relationship
efficacy against EKP-induced epileptiform discharges 2 μM ([2]; 2 μM): 61%
efficacy against EKP-induced epileptiform discharges 10 μM ([2]; 10 μM): 10%

CC(C)(C)c1ccc(-c2cc(=O)c3ccccc3[nH]2)cc1 [Compound 7.1, 2-(4-(tert-butyl)phenyl)quinolin-4(1H)-one]
effect on EKP-induced elevated PSD (in words) ([2]; 2 μM): significantly elevated the PSD
efficacy against EKP-induced epileptiform discharges 2 μM ([2]; 2 μM): −118%
effect on EKP-induced elevated PSD (in words) ([2]; 10 μM): significantly elevated the PSD
efficacy against EKP-induced epileptiform discharges 10 μM ([2]; 10 μM): −217%
antiseizure activity at the behavioural level (in words) [1]: significant antiseizure activity
activity against EKP-induced drug-resistant seizures (behavioural) [1]: active

CC(C)(C)c1ccc(-c2cc(=O)c3cccnc3[nH]2)cc1 [Compound 8.1, 2-(4-(tert-butyl)phenyl)-1,8-naphthyridin-4(1H)-one]
mean seizure duration ([3]; 30 mg/kg i.p.): 12.5 s
mean seizure duration ([3]; 100 mg/kg i.p.): 9.7 s
mean seizure duration ([3]; 300 mg/kg i.p.): 2.8 s
mean seizure duration ([3]; 600 mg/kg i.p.): 0 s
dose-response relationship (in words) [3]: displayed a dose-response relationship
efficacy against EKP-induced epileptiform discharges 2 μM ([2]; 2 μM): 57%
efficacy against EKP-induced epileptiform discharges 10 μM ([2]; 10 μM): −117%
activity against EKP-induced drug-resistant seizures (behavioural) [1]: active

COc1ccc(C(=O)C#Cc2ccc(C)cc2)cc1 [I.1, 1-(4-methoxyphenyl)-3-(p-tolyl)prop-2-yn-1-one]
activity against EKP-induced drug-resistant seizures (behavioural) [1]: active

Cc1ccc(C#CC(=O)c2ccc([N+](=O)[O-])cc2)cc1 [I.2, 1-(4-nitrophenyl)-3-(p-tolyl)prop-2-yn-1-one]
activity against EKP-induced drug-resistant seizures (behavioural) [1]: active

CC(C)(C)c1ccc(C#CC(=O)c2ccc(N)cc2)cc1 [I.4, 1-(4-aminophenyl)-3-(4-(tert-butyl)phenyl)prop-2-yn-1-one]
activity against EKP-induced drug-resistant seizures (behavioural) [1]: active

CC(C)(C)c1ccc(C#CC(=O)c2ccccc2N)cc1 [I.5, 1-(2-aminophenyl)-3-(4-(tert-butyl)phenyl)prop-2-yn-1-one]
activity against EKP-induced drug-resistant seizures (behavioural) [1]: active

CCCCCCC#CC(=O)c1ccccc1N [I.6, 1-(2-aminophenyl)non-2-yn-1-one]
reduction in EKP-induced drug-resistant seizures (non-significant) [1]: approximately 20%

CCCCCCC#CC(=O)c1ccc(C(=O)OCC)cc1 [I.7, ethyl 4-(non-2-ynoyl)benzoate]
reduction in EKP-induced drug-resistant seizures (non-significant) [1]: approximately 20%

CC(C)(C)c1ccc(C#CC(=O)c2ccsc2)cc1 [I.8, 3-(4-(tert-butyl)phenyl)-1-(thiophen-3-yl)prop-2-yn-1-one]
activity against EKP-induced drug-resistant seizures (behavioural) [1]: active

CCCCCCC#CC(=O)c1ccsc1 [I.9, 1-(thiophen-3-yl)non-2-yn-1-one]
activity against EKP-induced drug-resistant seizures (behavioural) [1]: active

O=C(C#CC1CC1)c1ccsc1 [I.10, 3-cyclopropyl-1-(thiophen-3-yl)prop-2-yn-1-one]
activity against EKP-induced drug-resistant seizures (behavioural) [1]: active

Cc1ccncc1C(=O)C#Cc1ccc(C(C)(C)C)cc1 [I.11, 3-(4-(tert-butyl)phenyl)-1-(4-methylpyridin-3-yl)prop-2-yn-1-one]
activity against EKP-induced drug-resistant seizures (behavioural) [1]: active

CNc1ccccc1C(=O)C#Cc1ccc(C(C)(C)C)cc1 [I.14, 3-(4-(tert-butyl)phenyl)-1-(2-(methylamino)phenyl)prop-2-yn-1-one]
activity against EKP-induced drug-resistant seizures (behavioural) [1]: active

O=c1cc(-c2ccccc2)[nH]c2ccccc12 [III.1, 2-phenylquinolin-4(1H)-one]
reduction in EKP-induced drug-resistant seizures (non-significant) [1]: approximately 20%

CCCC(CCC)C(=O)[O-].[Na+] [valproate, sodium valproate, reference compound]
protection against the electrically induced seizures (in words) ([3]; 300 mg/kg i.p., positive control): completely protected
